# Literature values in patent US6841363B2, “Preparation of capped mRNA” (Emory University, priority 2000, dated 2005).
# Legend:
# [1] = intrinsic fluorescence, m7GTP; W56Y compared with wild-type, 'shown therein' (Hsu et al. 2000 / U.S. Pat. No. 6,232,442)
# m7GTP = conditions: previous study (U.S. Pat. No. 6,232,442); human eIF4E and mutants; read-out: Kd (affinity for m7GTP)
substance,measurement,setting,value
wild-type: abundant form of human eIF4E (eukaryotic initiation factor 4E) previously isolated and characterized,Kd,[1],318 nM
same,Kd,m7GTP,1200 nM
